Data reported in patent US20100160251A1, “IMIDAZO COMPOUNDS” (priority 2006, published 2010).

Test system: γδT lymphocyte
Test: Induction of γδT lymphocyte proliferation, human peripheral blood cells, BrdU labelling after 3 days of culture
Format: cell-based
Procedure: The activity on γδT lymphocyte proliferation is tested in the following way: human peripheral blood cells are cultured in the presence of an RPMI-type culture medium supplemented with L-glutamine (2 mM), penicillin/streptomycin (50 μg/50 IU/ml) and foetal calf serum (10%). The C-glycoside derivatives are added at various concentrations (10 to 0.05 mM), along with phytohemagglutin (PHA at […]), a positive control for lymphocyte proliferation.

Structure (SMILES): CC(=O)C[C@H]1O[C@H](CO)[C@@H](O[C@@H]2O[C@H](CO)[C@H](O)[C@H](O)[C@H]2O)[C@H](O)[C@H]1O [Compound 1, 1-(C-β-D-lactopyranosyl)propan-2-one]
- % stimulation relative to the control (concentration 0.05 (mM)): 100%
- % stimulation relative to the control (concentration 0.1 (mM)): 110%
- % stimulation relative to the control (concentration 0.5 (mM)): 82%
- % stimulation relative to the control (concentration 1 (mM)): 108%
- % stimulation relative to the control (concentration 5 (mM)): 169%
- % stimulation relative to the control (concentration 10 (mM)): 214%
